Data as given in PubChem BioAssay (NCI).
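GI50: concentration for 50% inhibition of growth. At the TGI there is no net growth.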

What was measured:
Experiment in all cases: NCI anticancer screen, dose series, 384-well format
[1] = system: 786-0 renal
[2] = system: A498 renal
[3] = system: A549 NSCLC
[4] = system: ACHN renal
[5] = system: BT-549 breast
[6] = system: CAKI-1 renal
[7] = system: CCRF-CEM leukemia
[8] = system: COLO 205 colon
[9] = system: DU-145 prostate
[10] = system: EKVX NSCLC
[11] = system: HCC-2998 colon
[12] = system: HCT-116 colon
[13] = system: HCT-15 colon
[14] = system: HL-60(TB) leukemia
[15] = system: HOP-62 NSCLC
[16] = system: HOP-92 NSCLC
[17] = system: HS 578T breast
[18] = system: HT29 colon
[19] = system: IGROV1 ovarian
[20] = system: KM12 colon
[21] = system: LOX IMVI melanoma
[22] = system: M14 melanoma
[23] = system: MALME-3M melanoma
[24] = system: MCF7 breast
[25] = system: MDA-MB-231 breast
[26] = system: MDA-MB-435 melanoma
[27] = system: MDA-MB-468 breast
[28] = system: MOLT-4 leukemia
[29] = system: NCI-H226 lung
[30] = system: NCI-H23 lung
[31] = system: NCI-H322M lung
[32] = system: NCI-H460 NSCLC
[33] = system: NCI-H522 lung
[34] = system: NCI/ADR-RES ovarian
[35] = system: OVCAR-3 ovarian
[36] = system: OVCAR-4 ovarian
[37] = system: OVCAR-5 ovarian
[38] = system: OVCAR-8 ovarian
[39] = system: PC-3 prostate
[40] = system: RPMI-8226 leukemia
[41] = system: RXF 393 renal
[42] = system: SF-268 CNS
[43] = system: SF-295 CNS
[44] = system: SF-539 CNS
[45] = system: SK-MEL-28 melanoma
[46] = system: SK-MEL-5 melanoma
[47] = system: SK-OV-3 ovarian
[48] = system: SN12C renal
[49] = system: SNB-19 CNS
[50] = system: SNB-75 CNS
[51] = system: SR leukemia
[52] = system: SW-620 colon
[53] = system: T-47D breast
[54] = system: TK-10 renal
[55] = system: U251 glioblastoma
[56] = system: UACC-257 melanoma
[57] = system: UACC-62 melanoma
[58] = system: UO-31 renal

Question: CNC(=O)c1ccc(N2C(=S)N(c3cnc(C#N)c(C(F)(F)F)c3)C(=O)C23CCC3)cc1F was tested. Which GI50 [1] did it give?
Answer: > 100 µM

Question: And the TGI [1]?
Answer: > 100 µM

Question: And the GI50 [2]?
Answer: > 100 µM

Question: What about the TGI [2] of the same compound?
Answer: > 100 µM

Question: And the GI50 [3]?
Answer: > 100 µM

Question: What about the TGI [3] of the same compound?
Answer: > 100 µM

Question: What about the GI50 [4] of the same compound?
Answer: > 100 µM

Question: What about the TGI [4] of the same compound?
Answer: > 100 µM

Question: What about the GI50 [5] of the same compound?
Answer: > 100 µM

Question: What about the TGI [5] of the same compound?
Answer: > 100 µM

Question: And the GI50 [6]?
Answer: > 100 µM

Question: And the TGI [6]?
Answer: > 100 µM

Question: What about the GI50 [7] of the same compound?
Answer: > 100 µM

Question: What about the TGI [7] of the same compound?
Answer: > 100 µM

Question: What about the GI50 [8] of the same compound?
Answer: > 100 µM

Question: What about the TGI [8] of the same compound?
Answer: > 100 µM

Question: And the GI50 [9]?
Answer: > 100 µM

Question: And the TGI [9]?
Answer: > 100 µM

Question: And the GI50 [10]?
Answer: > 100 µM

Question: And the TGI [10]?
Answer: > 100 µM

Question: What about the GI50 [11] of the same compound?
Answer: > 100 µM

Question: And the TGI [11]?
Answer: > 100 µM

Question: And the GI50 [12]?
Answer: > 100 µM

Question: And the TGI [12]?
Answer: > 100 µM

Question: What about the GI50 [13] of the same compound?
Answer: > 100 µM

Question: And the TGI [13]?
Answer: > 100 µM

Question: And the GI50 [14]?
Answer: 55.6 µM

Question: And the TGI [14]?
Answer: > 100 µM

Question: And the GI50 [15]?
Answer: > 100 µM

Question: What about the TGI [15] of the same compound?
Answer: > 100 µM

Question: What about the GI50 [16] of the same compound?
Answer: > 100 µM

Question: And the TGI [16]?
Answer: > 100 µM

Question: What about the GI50 [17] of the same compound?
Answer: > 100 µM

Question: What about the TGI [17] of the same compound?
Answer: > 100 µM

Question: What about the GI50 [18] of the same compound?
Answer: > 100 µM

Question: And the TGI [18]?
Answer: > 100 µM

Question: What about the GI50 [19] of the same compound?
Answer: > 100 µM

Question: And the TGI [19]?
Answer: > 100 µM

Question: What about the GI50 [20] of the same compound?
Answer: > 100 µM

Question: What about the TGI [20] of the same compound?
Answer: > 100 µM

Question: What about the GI50 [21] of the same compound?
Answer: > 100 µM

Question: What about the TGI [21] of the same compound?
Answer: > 100 µM

Question: And the GI50 [22]?
Answer: > 100 µM

Question: What about the TGI [22] of the same compound?
Answer: > 100 µM

Question: What about the GI50 [23] of the same compound?
Answer: > 100 µM

Question: What about the TGI [23] of the same compound?
Answer: > 100 µM

Question: What about the GI50 [24] of the same compound?
Answer: > 100 µM

Question: And the TGI [24]?
Answer: > 100 µM

Question: What about the GI50 [25] of the same compound?
Answer: > 100 µM

Question: And the TGI [25]?
Answer: > 100 µM

Question: What about the GI50 [26] of the same compound?
Answer: > 100 µM

Question: What about the TGI [26] of the same compound?
Answer: > 100 µM

Question: What about the GI50 [27] of the same compound?
Answer: 55.5 µM

Question: What about the TGI [27] of the same compound?
Answer: > 100 µM

Question: What about the GI50 [28] of the same compound?
Answer: 36.4 µM

Question: What about the TGI [28] of the same compound?
Answer: > 100 µM

Question: What about the GI50 [29] of the same compound?
Answer: > 95.1 µM

Question: And the TGI [29]?
Answer: > 100 µM

Question: What about the GI50 [30] of the same compound?
Answer: > 100 µM

Question: And the TGI [30]?
Answer: > 100 µM

Question: What about the GI50 [31] of the same compound?
Answer: > 100 µM

Question: And the TGI [31]?
Answer: > 100 µM

Question: And the GI50 [32]?
Answer: > 100 µM

Question: And the TGI [32]?
Answer: > 100 µM

Question: What about the GI50 [33] of the same compound?
Answer: > 100 µM

Question: And the TGI [33]?
Answer: > 100 µM

Question: What about the GI50 [34] of the same compound?
Answer: > 100 µM

Question: What about the TGI [34] of the same compound?
Answer: > 100 µM

Question: And the GI50 [35]?
Answer: > 100 µM

Question: And the TGI [35]?
Answer: > 100 µM

Question: And the GI50 [36]?
Answer: 90.4 µM

Question: What about the TGI [36] of the same compound?
Answer: > 100 µM

Question: And the GI50 [37]?
Answer: > 100 µM

Question: What about the TGI [37] of the same compound?
Answer: > 100 µM

Question: And the GI50 [38]?
Answer: > 100 µM

Question: And the TGI [38]?
Answer: > 100 µM

Question: And the GI50 [39]?
Answer: > 100 µM

Question: What about the TGI [39] of the same compound?
Answer: > 100 µM

Question: And the GI50 [40]?
Answer: 69.1 µM

Question: And the TGI [40]?
Answer: > 100 µM

Question: What about the GI50 [41] of the same compound?
Answer: > 62.4 µM

Question: What about the TGI [41] of the same compound?
Answer: > 100 µM

Question: And the GI50 [42]?
Answer: > 100 µM

Question: What about the TGI [42] of the same compound?
Answer: > 100 µM

Question: What about the GI50 [43] of the same compound?
Answer: > 100 µM

Question: What about the TGI [43] of the same compound?
Answer: > 100 µM

Question: And the GI50 [44]?
Answer: > 100 µM

Question: What about the TGI [44] of the same compound?
Answer: > 100 µM

Question: And the GI50 [45]?
Answer: > 100 µM

Question: And the TGI [45]?
Answer: > 100 µM

Question: And the GI50 [46]?
Answer: > 100 µM

Question: What about the TGI [46] of the same compound?
Answer: > 100 µM

Question: What about the GI50 [47] of the same compound?
Answer: > 100 µM

Question: What about the TGI [47] of the same compound?
Answer: > 100 µM

Question: And the GI50 [48]?
Answer: > 100 µM

Question: And the TGI [48]?
Answer: > 100 µM

Question: What about the GI50 [49] of the same compound?
Answer: > 100 µM

Question: And the TGI [49]?
Answer: > 100 µM

Question: And the GI50 [50]?
Answer: > 100 µM

Question: And the TGI [50]?
Answer: > 100 µM

Question: And the GI50 [51]?
Answer: 29 µM

Question: And the TGI [51]?
Answer: 100 µM

Question: And the GI50 [52]?
Answer: > 100 µM

Question: And the TGI [52]?
Answer: > 100 µM

Question: And the GI50 [53]?
Answer: > 72.4 µM

Question: And the TGI [53]?
Answer: > 100 µM

Question: What about the GI50 [54] of the same compound?
Answer: > 100 µM

Question: What about the TGI [54] of the same compound?
Answer: > 100 µM

Question: What about the GI50 [55] of the same compound?
Answer: > 100 µM

Question: What about the TGI [55] of the same compound?
Answer: > 100 µM

Question: And the GI50 [56]?
Answer: > 100 µM

Question: What about the TGI [56] of the same compound?
Answer: > 100 µM

Question: And the GI50 [57]?
Answer: > 100 µM

Question: What about the TGI [57] of the same compound?
Answer: > 100 µM

Question: And the GI50 [58]?
Answer: > 100 µM

Question: And the TGI [58]?
Answer: > 100 µM
